Source: patent US20250057751A1, “PEPTIDE HAVING ACTIVITY OF IMPROVING STATE OF SKIN, AND USE THEREOF” (CAREGEN CO., LTD., priority 2021, published 2025)

Columns and labels:
NIH3T3 cells [1] = experiment: Inhibitory effect on apoptosis of skin cells induced by ultraviolet rays (survival rate, SRB); format: cell-based, mouse; conditions: 6 J/cm2 ultraviolet rays, 50 μM or 100 μM peptide, 72 hours, FIG. 6A
Experimental: (§1) In this example, the aim was to confirm the effect of the peptide according to an example on the inhibition of apoptosis or cell recovery of skin cells induced by ultraviolet rays, by evaluating the change in survival rate of skin cells whose apoptosis was induced by ultraviolet irradiation.
(§2) Specifically, NIH3T3 cells or HaCaT cells were seeded in a 96-well plate at a density of 1×10^4 cells/well and cultured for 24 hours. The cells were then washed once with serum-free DMEM media, the culture medium was replaced with serum-free DMEM media, and 50 μM or 100 μM of the peptide consisting of the amino acid sequence of SEQ ID NO: 1 was dispensed to the culture medium. The culture medium dispensed with the peptide was cultured in a CO2 incubator at 37° C. for 1 hour, transferred to an e-tube, mixed with 100 ul of PBS, and dispensed into a well plate. Afterwards, using a UV irradiator (VILBER LOURMAT, France), 6 J/cm2 ultraviolet rays were irradiated to NIH3T3 cells, and 15m J/cm2 ultraviolet rays were irradiated to HaCaT cells. The PBS in the well plate was then removed, 900 μL of the culture medium in which the peptides were dispensed was added, and the plate was cultured in a CO2 incubator at 37° C. for 72 hours. […] The dried culture was then dissolved in 20 mM Tris buffer solution and the absorbance at 560 nm was measured using a microplate reader (Molecular Devices, USA). […]

HaCaT cells [2] = experiment: as above; format: cell-based, human; conditions: 15m J/cm2 ultraviolet rays, 50 μM or 100 μM peptide, 72 hours, FIG. 6B
Experimental: as §1, §2

HaCaT cells [3] = experiment: Proliferation promoting effect on skin cells (SRB staining, absorbance at 560 nm); format: cell-based, human; conditions: 50 μM or 100 μM peptide, 72 hours, serum-free DMEM, FIG. 1B
Experimental: (§3) In this example, the aim was to confirm the effect of a peptide according to an example on proliferation of skin cells, by evaluating changes in survival rate of NIH3T3 cells, which are mouse fibroblasts, or HaCaT cells, which are human keratinocytes.
(§4) Specifically, NIH3T3 cells or HaCaT cells were seeded in a 96-well plate at a density of 5×10^3 cells/well and cultured for 24 hours. The cells were then washed once with serum-free DMEM media, and the culture medium was replaced with serum-free DMEM media. Then, 50 μM or 100 μM of the peptide consisting of the amino acid sequence of SEQ ID NO: 1 was dispensed into the medium, and cultured in a CO2 incubator at 37° C. for 72 hours. The culture was then washed twice with PBS and treated with 4% paraformaldehyde (PFA) solution for 15 minutes to fix the cultured cells. The culture was then washed twice with distilled water, treated with SRB solution for 1 hour to stain the cells, washed with 1% acetic acid solution, and dried. The dried culture was then dissolved in 20 mM Tris buffer solution and the absorbance at 560 nm was measured using a microplate reader (Molecular Devices, USA). In this example, the untreated group was used as the control group, and the group to which insulin-like growth factor was added (IGF) was used as the positive control group.

NIH3T3 cells [4] = experiment: Antioxidant effect on skin cells induced by ultraviolet rays (reactive oxygen species, flow cytometry); format: cell-based, mouse; conditions: 6 J/cm2 ultraviolet rays, 50 μM or 100 μM peptide, 24 hours, FIG. 7A
Experimental: (§5) In this example, the aim was to confirm the effect of the peptide according to an embodiment on the antioxidant effect of skin cells induced by ultraviolet rays, by evaluating the level of reactive oxygen species in skin cells increased by ultraviolet irradiation.
as §2, with “6-well” for “96-well”, “5×10^5” for “1×10^4”, “24” for “72”, “After washing” for “The dried culture was then dissolved in 20 mM Tris buffer solution and”, “centrifuged cells with PBS, FL1 fluorescence values were” for “absorbance at 560 nm was”, “through flow cytometry (FACS, BD,” for “using a microplate reader (Molecular Devices,”

collagen type 1 (Col1a1) = experiment: Expression of extracellular matrix constituent factor in NIH3T3 cells (RT-PCR); format: cell-based, mouse; conditions: 50 μM or 100 μM peptide, 24 hours, FIG. 2, FIG. 3A
Experimental: (§6) In this example, the aim was to confirm the effect of the peptide according to an example on improving endogenous skin aging, including improvement of wrinkles and enhancement of elasticity, etc., by evaluating the expression levels of collagen type 1 (Col1a1), fibronectin, or elastin, which are known components of the dermis.
(§7) Specifically, NIH3T3 cells were seeded in a 6-well plate at a density of 3×10^5 cells/well and cultured for 24 hours. The cells were then washed once with serum-free DMEM media, and the culture medium was replaced with serum-free DMEM media. Thereafter, 50 μM or 100 μM of the peptide consisting of the amino acid sequence of SEQ ID NO: 1 was dispensed into the medium, and cultured in a CO2 incubator at 37° C. for 24 hours. The culture was then washed twice with PBS, and RNA was isolated from the culture using easy blue (iNtRON, Korea). Using an RT kit (Enzynomics, Korea), 1 μg of the isolated RNA was reverse transcribed to synthesize the respective cDNA. Polymerase chain reaction (PCR) was then performed using the cDNAs and primers Col1a1, fibronectin, and elastin. Meanwhile, the untreated group was used as the control group, and the group to which TGF-β1 was added (TGF-β1) was used as the positive control group, the nucleotide sequences of the primers used in this example are shown in Table 2 below.

elastin = experiment: as above; format: cell-based, mouse; conditions: 50 μM or 100 μM peptide, 24 hours, FIG. 2, FIG. 3C
Experimental: as §6, §7

fibronectin = experiment: as above; format: cell-based, mouse; conditions: 50 μM or 100 μM peptide, 24 hours, FIG. 2, FIG. 3B
Experimental: as §6, §7

NIH3T3 cells [5] = experiment: Proliferation promoting effect on skin cells (SRB staining, absorbance at 560 nm); format: cell-based, mouse; conditions: 50 μM or 100 μM peptide, 72 hours, serum-free DMEM, FIG. 1A
Experimental: as §3, §4

aquaporin-3 (AQP3) = experiment: Expression of skin barrier factor in HaCaT cells (RT-PCR); format: cell-based, human; conditions: 50 μM or 100 μM peptide, 24 hours, FIG. 4, FIG. 5B
Experimental: (§8) In this example, the aim was to confirm the effect of the peptides according to an example on skin barrier defense, by evaluating the expression levels of sirtuin-1 (SIRT-1) or aquaporin-3 (AQP3).
(§9) Specifically, HaCaT cells were seeded in a 6-well plate at a density of 3×10^5 cells/well and cultured for 24 hours. The cells were then washed once with serum-free DMEM media, and the culture medium was replaced with serum-free DMEM media. Thereafter, 50 μM or 100 μM of the peptide consisting of the amino acid sequence of SEQ ID NO: 1 was dispensed into the medium, and cultured in a CO2 incubator at 37° C. for 24 hours. The culture was then washed twice with PBS, and RNA was isolated from the culture using easy blue (iNtRON, Korea). Using the RT kit (Enzynomics, Korea), 1 ug of the isolated RNA was reverse transcribed to synthesize the respective cDNA. Polymerase chain reaction was then performed using the cDNAs and primers sirtuin-1and aquaporin-3. Meanwhile, the untreated group was used as the control group, and the group to which EGF was added (EGF) was used as the positive control group, the nucleotide sequences of the primers used in this example are shown in Table 3 below.

sirtuin-1 (SIRT-1) = experiment: as above; format: cell-based, human; conditions: 50 μM or 100 μM peptide, 24 hours, FIG. 4, FIG. 5A
Experimental: as §8, §9

HaCaT cells [6] = experiment: Antioxidant effect on skin cells induced by ultraviolet rays (reactive oxygen species, flow cytometry); format: cell-based, human; conditions: 15m J/cm2 ultraviolet rays, 50 μM or 100 μM peptide, 24 hours, FIG. 7B
Experimental: as §5
as §2, with “6-well” for “96-well”, “5×10^5” for “1×10^4”, “24” for “72”, “After washing” for “The dried culture was then dissolved in 20 mM Tris buffer solution and”, “centrifuged cells with PBS, FL1 fluorescence values were” for “absorbance at 560 nm was”, “through flow cytometry (FACS, BD,” for “using a microplate reader (Molecular Devices,”

## IHGTYKELLDTVTAP (Peptide 1) [SEQ ID NO: 1]
NIH3T3 cells [1]
  cell survival rate of fibroblasts reduced by ultraviolet irradiation: restored
HaCaT cells [2]
  cell survival rate of keratinocytes reduced by ultraviolet irradiation: restored
HaCaT cells [3]
  proliferation of keratinocytes: promoted
NIH3T3 cells [4]
  level of reactive oxygen species in fibroblasts increased by ultraviolet irradiation: reduced
Collagen type 1 (Col1a1)
  expression of Col1a1: increased
elastin
  expression of elastin: increased
fibronectin
  expression of fibronectin: increased
NIH3T3 cells [5]
  proliferation of fibroblasts: promoted
aquaporin-3 (AQP3)
  expression of AQP3: increased
sirtuin-1 (SIRT-1)
  expression of SIRT-1: increased
HaCaT cells [6]
  level of reactive oxygen species in keratinocytes increased by ultraviolet irradiation: reduced
